Experimental data taken from patent US5374713A, “Peptide inhibitors of phospholipase A2 purified from inflammatory sites” (Teijin Limited, priority 1990, dated 1994).
pIC50: −log10 of the molar value. Ends that are not written are not given here.

Key:
[1] = target: T1, phospholipase A2 from human inflammatory sites (the joint fluid from patients with rheumatoid arthritis) (Homo sapiens, UniProt P14555); test: Determination of inhibitory activity against phospholipase A2 (human inflammatory sites); type: biochemical; conditions: phosphatidylethanolamine substrate, pH 9.0, 37° C., 10 minutes
T1 construct: from human inflammatory sites (the joint fluid from patients with rheumatoid arthritis); from tissue; host or cells: joint fluid from patients with rheumatoid arthritis
T1 sequence (P14555 21-144): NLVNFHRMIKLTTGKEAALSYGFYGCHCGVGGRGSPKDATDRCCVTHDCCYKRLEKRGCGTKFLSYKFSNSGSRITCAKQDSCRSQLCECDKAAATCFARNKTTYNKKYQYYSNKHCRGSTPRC
Protocol: (§1) The activity-measuring system was prepared by adding distilled water to 100 mM Tris-HCl (ph 9.0), 4 mM calcium chloride, 0.1 mM phosphatidylethanolamine (2,000 dpm/nmol), and 10 μl sample to adjust the total volume to 240 μl, and finally 10 μl of 0.1 ng/μ1 phospholipase A2 was added. The phospholipases A2 used were from human inflammatory sites (the joint fluid from patients with rheumatoid arthritis) (Hara et al., J. Biochem., 104, 326-328, 1988), rat inflammatory sites (Chang et al., J. Biochem., 102, 147-154, 1987), and porcine pancreas (Boehringer Manheim Co.). Phosphatidylethanolamine was purified from Escherichia coli cultured in a medium to which acetic acid was added.
(§2) The reactions were conducted at 37° C. with stirring for 10 minutes. The termination of the reaction and the extraction of fatty acids generated were carried out by the Dole's method (Dole et al., J. Biol. Chem., 235, 2595-2599, 1960) and the extracted fatty acid was determined with a scintillation counter.
(§3) The lyophilyzed sample obtained in Example 1 was dissolved again in 50% acetone-0.1% trifluoroacetic acid to adjust the concentration to 10 mg/ml. The solution was further diluted stepwise with the same buffer and the inhibitory activity of phospholipase A2 from inflammatory sites was determined at individual concentrations.

[2] = target: T2, phospholipase A2 from rat inflammatory sites (Rattus norvegicus, UniProt P14423); test: Determination of inhibitory activity against phospholipase A2 (rat inflammatory sites); type: biochemical; conditions: phosphatidylethanolamine substrate, pH 9.0, 37° C., 10 minutes
T2 construct: rat inflammatory sites (Chang et al., J. Biochem., 102, 147-154, 1987); from tissue
T2 sequence (P14423 22-146): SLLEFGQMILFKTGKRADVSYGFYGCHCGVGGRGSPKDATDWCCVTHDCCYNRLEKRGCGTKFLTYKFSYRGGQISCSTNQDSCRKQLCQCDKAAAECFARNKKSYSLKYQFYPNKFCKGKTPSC
Protocol: as §1, §2, §3

QKDAPDHQELNLDVSLQLPSR
pIC50 [1]: ~6.30
pIC50 [2]: ~6.30
